Source: patent publication US20250388605A1, “HETEROBIFUNCTIONAL COMPOUNDS AND METHODS OF TREATING DISEASE” (Halda Therapeutics OpCo, Inc., priority 2022, published 2025)

Columns and labels:
[1] = test system: T-Rex 293 cell line SC3 cells having increased expression of androgen receptor protein due to exposure to doxycycline; assay: Cellular growth inhibition, T-Rex 293 SC3 cells with doxycycline (increased androgen receptor expression), CellTiter-Glo; type: cell-based; details: T-Rex 293 SC3 cells with 10 ng/mL doxycycline (increased androgen receptor expression), 72 hours, CellTiter-Glo 2.0
Method in brief: (§1)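 Growth inhibition is measured in an inducible AR-expressing T-Rex 293 clone, SC3, cultured with or without 10 ng/mL doxycycline in hormone-depleted medium. Test compounds are applied for 72 hours. GI50 values derive from CellTiter-Glo 2.0 signal fitted by four-parameter regression.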

[2] = test system: T-Rex 293 cell line SC3 cells lacking increased expression of androgen receptor protein; assay: Cellular growth inhibition, T-Rex 293 SC3 cells without doxycycline (no increased androgen receptor expression), CellTiter-Glo; type: cell-based; details: T-Rex 293 SC3 cells not exposed to doxycycline (no increased androgen receptor expression), 72 hours
Method in brief: as §1

VCaP cells = assay: Cellular growth inhibition assay for VCaP cells, CellTiter-Glo; type: cell-based, human; details: 72 hours
Method in brief: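 GI50 values come from four-parameter curve fits of luminescence data normalized to a zero baseline. Compound, in medium with 0.5% DMSO, was added one day after plating and left for 72 h before CellTiter-Glo 2.0 addition.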

[3] = test system: T-Rex 293 cell line SC cells having increased expression of progesterone receptor isoform B protein; assay: Cellular growth inhibition assay, T-Rex 293 SC cells exposed to doxycycline (increased progesterone receptor isoform B expression), CellTiter-Glo; type: cell-based; details: T-Rex 293 SC cells with 10 ng/mL doxycycline (increased PR isoform B), 72 hours
Procedure: (§2) The SC cells were seeded on poly-D-lysine coated, black clear-bottom 384-well plates at 2500/well, in 25 μL Phenol Red Free Dulbecco's Modified Eagle Medium (DMEM) supplemented with 10% w/w charcoal-dextran treated fetal bovine serum (FBS) and 1% w/w pen-strep, with or without 10 ng/mL doxycycline. Pen-Strep is a commercially available mixture of penicillin G and streptomycin, which is used in mammalian cell culture media to prevent bacterial contamination. Phenol Red Free Dulbecco's Modified Eagle Medium (DMEM) supplemented with 10% w/w charcoal-dextran treated fetal bovine serum (FBS) and 1% w/w pen-strep, with or without 10 ng/mL doxycycline is herein referred to as Treatment Medium. Following seeding of cells in the plates, the plates were spun at 300×g for 30 seconds, then equilibrated to room temperature for 30 minutes, and then deposited in a humidified tissue culture incubator maintained at 37° C. with 5% CO2.
(§3) At 24 hours after seeding of the cells, dilutions of test compound were prepared in DMSO and dissolved in Treatment Medium, to achieve a final DMSO concentration of 0.5% w/w, thereby providing the Test Compound Solution. A 25 μL aliquot of the Test Compound Solution was added to cells in the well plates. An equal volume of a solution containing DMSO and Treatment Medium was used as a negative control. Following treatment of cells with Test Compound Solution or said equal volume of a solution containing DMSO and Treatment Medium, the plates were spun at 300×g for 30 seconds, and then left in an incubator for 72 hours.
(§4) At the end of the treatment duration, cell viability was quantified with CellTiter-Glo 2.0 reagent (Promega Cat #G9243). For this purpose, plates were equilibrated to room temperature for 30 minutes, and then 25 μL of CellTiter-Glo 2.0 reagent was added to cells in the plate wells. Plates were then agitated on a shaker for two minutes at 500 rpm and subsequently incubated at room temperature for 10 minutes. Following incubation, the plates were spun at 3000×g for 30 seconds, then sealed with an optical adhesive cover, and luminescence readings were measured with an EnVision Plate Reader (Perkin Elmer).
(§5) Data was normalized using zero luminescence for baseline. A four-parameter non-linear regression curve fit was applied to dose-response data in GraphPad Prism data analysis software to determine the half-maximal growth inhibitory concentration (GI50) for each test compound.

[4] = test system: T-Rex 293 cell line SC cells lacking increased expression of progesterone receptor isoform B protein; assay: Cellular growth inhibition assay, T-Rex 293 SC cells not exposed to doxycycline (no increased progesterone receptor isoform B expression), CellTiter-Glo; type: cell-based; details: T-Rex 293 SC cells without doxycycline (no increased PR isoform B), 72 hours
Procedure: as §2, §3, §4, §5

T47D cells = assay: Cellular Growth Inhibition Assay for T47D Cells (CellTiter-Glo); type: cell-based, human; details: 72 hours
Method in brief: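 GI50 values derive from four-parameter regression of CellTiter-Glo 2.0 luminescence, using zero luminescence as baseline. Human breast cancer T47D cells (3000/well; DMEM, 10% FBS, 0.2 units/mL insulin) were exposed for 72 h to compound dilutions at 0.5% DMSO, with dosing starting 24 h after seeding.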

BRD4-BD1 = molecular target: T1, BRD4-BD1 (Homo sapiens, UniProt O60885); assay: Binding affinity to BRD4-BD1 (bromoKdELECT assay); details: 11-point 3-fold dilution series
T1 construct: made in house; host or cells: T7 phage grown in an E. coli host derived from the BL21 strain
Procedure: (§6) Compounds were tested using a bromoKdELECT assay. T7 phage strains displaying bromodomains were grown in parallel in 24-well blocks in an E. coli host derived from the BL21 strain. E. coli were grown to log-phase and infected with T7 phage from a frozen stock (multiplicity of infection=0.4) and incubated with shaking at 32° C. until lysis (90-150 minutes). The lysates were centrifuged (5,000×g) and filtered ([…]) to remove cell debris. Streptavidin-coated magnetic beads were treated with biotinylated small molecule or acetylated peptide ligands for 30 minutes at room temperature to generate affinity resins for bromodomain assays. The liganded beads were blocked with excess biotin and washed with blocking buffer (SeaBlock (Pierce), 1% BSA, 0.05% Tween 20, 1 mM DTT) to remove unbound ligand and to reduce nonspecific phage binding. Binding reactions were assembled by combining bromodomains, liganded affinity beads, and test compounds in 1× binding buffer (17% SeaBlock, 0.33×PBS, 0.04% Tween 20, 0.02% BSA, 0.004% Sodium azide, 7.4 mM DTT). Test compounds were prepared as 1000× stocks in 100% DMSO. Kds were determined using an 11-point 3-fold compound dilution series with one DMSO control point. All compounds for Kd measurements are distributed by acoustic transfer (non-contact dispensing) in 100% DMSO. The compounds were then diluted directly into the assays such that the final concentration of DMSO was 0.09%. All reactions performed in polypropylene 384-well plates. Each was a final volume of 0.02 ml. The assay plates were incubated at room temperature with shaking for 1 hour and the affinity beads were washed with wash buffer (1×PBS, 0.05% Tween 20). The beads were then resuspended in elution buffer (1×PBS, 0.05% Tween 20, 2 M non-biotinylated affinity ligand) and incubated at room temperature with shaking for 30 minutes. The bromodomain concentration in the eluates was measured by qPCR.

BRD4-BD2 = molecular target: T2, BRD4-BD2 (Homo sapiens, UniProt O60885); assay: Binding affinity to BRD4-BD2 (bromoKdELECT assay); details: 11-point 3-fold dilution series
T2 construct: made in house; host or cells: T7 phage grown in an E. coli host derived from the BL21 strain
Procedure: as §6, with “2 μM” for “2 M”

| Compound | GI50 (VCaP cells; Homo sapiens) [nM] | GI50 (T47D cells; Homo sapiens) [nM] | GI50 (VCaP cells) [nM] | GI50 (T47D cells) [nM] | Kd (BRD4-BD1) [nM] | Kd (BRD4-BD2) [nM] | GI50 [1] [nM] | GI50 [2] [nM] | GI50 [3] [nM] | GI50 [4] [nM] |
| --- | --- | --- | --- | --- | --- | --- | --- | --- | --- | --- |
| CN(CCCOc1ccc(Oc2ccc(C(C)(C)O)cc2-c2cn(C)c(=O)c3[nH]ccc23)cc1)c1ncc(C(=O)N[C@H]2C(C)(C)[C@H](Oc3ccc(C#N)c(Cl)c3)C2(C)C)cn1 [Compound I-200] | < 500 | 500 to 1500 |  |  |  |  | < 500 | 500 to 1500 | < 500 | < 500 |
| CN(CCc1ccc(Oc2ccc(C(C)(C)O)cc2-c2cn(C)c(=O)c3[nH]ccc23)cc1)c1ncc(C(=O)N[C@H]2C(C)(C)[C@H](Oc3ccc(C#N)c(Cl)c3)C2(C)C)cn1 [Compound I-198] | < 500 | < 500 |  |  |  |  | < 500 | < 500 | < 500 | < 500 |
| Cn1cc(-c2cc(C(C)(C)O)ccc2Oc2ccc(N3CC(CC4CN(c5ccc(C(=O)N[C@H]6C(C)(C)[C@H](Oc7ccc(C#N)c(Cl)c7)C6(C)C)nc5)C4)C3)cc2)c2cc[nH]c2c1=O [Compound I-322] |  |  | 500 to 1500 | < 500 |  |  | < 500 | 1500 to 3000 | < 500 | 1500 to 3000 |
| Cn1cc(-c2cc(C(C)(C)O)ccc2Oc2ccc(C3CN(C4CCN(c5ncc(C(=O)N[C@H]6C(C)(C)[C@H](Oc7ccc(C#N)c(Cl)c7)C6(C)C)cn5)CC4)C3)cc2)c2cc[nH]c2c1=O [Compound I-304] |  |  | < 500 | < 500 |  |  | < 500 | < 500 | < 500 | 500 to 1500 |
| CCS(=O)(=O)Nc1ccc(Oc2cccc(OC3CC4(CCN(c5ncc(C(=O)N[C@H]6C(C)(C)[C@H](Oc7ccc(C#N)c(Cl)c7)C6(C)C)cn5)CC4)C3)c2)c(-c2cn(C)c(=O)c3[nH]ccc23)c1 [Compound I-44] | < 500 | < 500 |  |  |  |  | < 500 | > 3000 | < 500 | > 3000 |
| CCS(=O)(=O)Nc1ccc(Oc2cccc(N3CCC(CC4CCN(c5ncc(C(=O)N[C@H]6C(C)(C)[C@H](Oc7ccc(C#N)c(Cl)c7)C6(C)C)cn5)CC4)CC3)c2)c(-c2cn(C)c(=O)c3[nH]ccc23)c1 [Compound I-36] | < 500 | < 500 |  |  |  |  | < 500 | > 3000 | < 500 | > 3000 |
| Cn1cc(-c2cc(C(C)(C)O)ccc2Oc2ccc(CC3CC4(CCN(c5ncc(C(=O)N[C@H]6C(C)(C)[C@H](Oc7ccc(C#N)c(Cl)c7)C6(C)C)cn5)CC4)C3)cc2)c2cc[nH]c2c1=O [Compound I-279] | < 500 |  |  |  |  |  | < 500 | > 3000 | < 500 | > 3000 |
| CCS(=O)(=O)Cc1ccc(Oc2cccc(OCCN3CCN(c4ncc(C(=O)N[C@H]5C(C)(C)[C@H](Oc6ccc(C#N)c(Cl)c6)C5(C)C)cn4)CC3)c2)c(-c2cn(C)c(=O)c3[nH]ccc23)c1 [Compound I-106] |  |  | < 500 |  | 50 to 500 | < 50 | < 500 | < 500 |  |  |

The next lines start with results.

| GI50 (VCaP cells; Homo sapiens) [nM] | GI50 (T47D cells; Homo sapiens) [nM] | GI50 (VCaP cells) [nM] | GI50 (T47D cells) [nM] | Kd (BRD4-BD1) [nM] | Kd (BRD4-BD2) [nM] | Compound | GI50 [1] [nM] | GI50 [2] [nM] | GI50 [3] [nM] | GI50 [4] [nM] |
| --- | --- | --- | --- | --- | --- | --- | --- | --- | --- | --- |
|  |  | < 500 | < 500 |  |  | Cn1cc(-c2cc(C(C)(C)O)ccc2Oc2ccc(N3CC(C4CCN(c5ncc(C(=O)N[C@H]6C(C)(C)[C@H](Oc7ccc(C#N)c(Cl)c7)C6(C)C)cn5)CC4)C3)cc2)c2cc[nH]c2c1=O [Compound I-299] | < 500 | > 3000 | < 500 | 500 to 1500 |
|  |  | < 500 |  |  |  | CCS(=O)(=O)c1ccc(Oc2cccc(OCCN3CCN(c4ncc(C(=O)N[C@H]5C(C)(C)[C@H](Oc6ccc(C#N)c(Cl)c6)C5(C)C)cn4)CC3)c2F)c(-c2cn(C)c(=O)c3[nH]ccc23)c1 [Compound I-207] | < 500 | < 500 | < 500 | < 500 |
| < 500 |  |  |  | 50 to 500 | 50 to 500 | CCS(=O)(=O)c1ccc(OC(COCCOC2CCN(c3ncc(C(=O)NC4C(C)(C)C(Oc5ccc(C#N)c(Cl)c5)C4(C)C)cn3)CC2)C2CC2)c(-c2cn(C)c(=O)c3[nH]ccc23)c1 (stereo not shown) [Compound I-186, N-[3-(3-chloro-4-cyano-phenoxy)-2,2,4,4-tetramethyl-cyclobutyl]-2-[4-[2-[2-cyclopropyl-2-[4-ethylsulfonyl-2-(6-methyl-7-oxo-1H-pyrrolo[2,3-c]pyridin-4-yl)phenoxy]ethoxy]ethoxy]-1-piperidyl]pyrimidine-5-carboxamide] | < 500 | < 500 |  |  |
| < 500 |  |  |  | 50 to 500 | < 50 | CCS(=O)(=O)Nc1ccc(Oc2cccc(OCCOCCOCCOCCOCCOCCOCCOC3CCN(c4ncc(C(=O)N[C@H]5C(C)(C)[C@H](Oc6ccc(C#N)c(Cl)c6)C5(C)C)cn4)CC3)c2)c(-c2cn(C)c(=O)c3[nH]ccc23)c1 [Compound I-9] | < 500 | 500 to 1500 |  |  |
